The subject of the assay is ZRK. In words: NAD. The format is biochemical, Zygosaccharomyces rouxii. The settings on record: 2000 uM NADPH/NADH; enzyme 1 ug/ml; optimal buffer.

Each structure is given as a SMILES string.

The Km is the substrate concentration at which the rate is half of its maximum. As to `CC(=O)c1cc(C(F)(F)F)cc(C(F)(F)F)c1` [Aprepitant K-INT, 1-(3,5-bis-trifluoromethyl-phenyl)-ethanone], the Km amounted to 186 µM. With `COC(=O)CC(=O)Cc1cc(F)c(F)cc1F` [Sitagliptin K-INT, 3-oxo-4-(2,4,5-trifluoro-phenyl)-butyric acid methyl ester], the Km came out at 346 µM.

These data come from paper doi:10.1101/2021.07.05.449867v2 (biorxiv, 2021).
